Experiments:
[1] = tested on: differentiated neurons derived from human iPSCs; experiment: Calcium ion imaging of differentiated neurons after KCl and glutamic acid stimulation; assay type: cell-based; settings: tested day 38
Description: d. Calcium Ion Imaging Analysis: Cells were seeded onto 10 mm diameter coverslips coated with Geltrex and cultured in NB medium supplemented with RevitaCell and Compound E for 3 days. A 1 μM solution of Fluo-4 was prepared in physiological buffer. The coverslips were incubated in the Fluo-4 solution at 37° C. for 40 minutes, followed by incubation in physiological buffer at 37° C. for 20 minutes. The coverslips were then transferred to a calcium imaging chamber for perfusion imaging. The cells were perfused with physiological buffer for 30 seconds, then switched to 60 mM KCl perfusion for one minute, followed by physiological buffer perfusion for five minutes. Subsequently, the cells were perfused with 1 mM L-glutamic acid for one minute, followed by physiological buffer perfusion for five minutes. Images were captured using a Nikon ECLIPSE Ti2-E microscope and analyzed with NIS-Elements AR software.
Three sets of cells were prepared: one set of cells cultured without n-butylidenephthalide treatment (Ctrl), another set cultured with 500 μM n-butylidenephthalide for 120 hours on day 10 of differentiation (NPC-BP500), and a third set cultured with 500 μM n-butylidenephthalide for 120 hours on day 25 of differentiation (Neuron-BP500). […]

[2] = tested on: undifferentiated pluripotent stem cells expressing Oct-4; experiment: Oct-4 / N-cadherin immunofluorescence on day 5 of neural stem cell adhesion differentiation; assay type: cell-based, human; settings: 50, 100 and 200 μM for 24 hours on day 5 of differentiation, FIG. 6
Description: 4. Neural Stem Cell Adhesion Differentiation of Human iPSCs (Neural Stem Cell Adhesion Differentiation Method): Human iPSCs, cultured in a feeder-free environment, were subcultured at a 1:10 ratio for neural stem cell differentiation. The differentiation was induced by using a neural induction medium composed of DMEM/F12 (2:1) and N2 supplement, with the addition of basic FGF (10 mg/mL), SB431542 (2 μM), and CHIR99021 (3 μM). The medium was changed every two days with proteins and small molecules re-added. Culture time for this neural stem cell adhesion differentiation is up to 7 days.
(§1) a. Drug Efficacy and Concentration Testing: n-Butylidenephthalide was diluted to different concentrations and administered to cells at final concentrations ranging from 50 to 750 μM. The types of administered cells include cultured human iPSCs, human iPSCs aggregated into SFEBs for one day, neural stem cells on day 10 of SFEB differentiation, neurons on day 25 of SFEB differentiation, and cells on day 5 of neural differentiation by the adhesion. The concentrations and treatment durations were as described in the Examples.
a. Immunofluorescence Staining Method: Chamber slides were surface-treated with 1% basement membrane matrix for 3 to 4 hours, and the slides were set aside after the matrix was removed. […] The slides were stored in the dark at 4° C. for subsequent analysis under a fluorescence microscope. […]

[3] = tested on: human induced pluripotent stem cells (iPSCs); experiment: Treatment of cultured human iPSCs with n-butylidenephthalide, cell morphology and survival; assay type: cell-based; settings: for number of human iPSCs versus control (Ctrl) and DMSO control: 100 μM
Description: 1. Culture of iPSCs in Essential 8 Feeder-Free Culture Medium: Human iPSCs were cultured in Essential 8 medium (Gibco) in culture dishes treated with basement membrane matrix (Matrigel). Subculture was performed when the cells reached 70% to 80% confluence, approximately 3 to 5 days. During subculture, the cells were rinsed twice with PBS until the edges began to lift, followed by treatment with a cell dissociation regent (Accutase) for 1 to 5 minutes to round up most of the cells. The cell dissociation regent was then diluted with DMEM/F12, and DMEM medium was added. The cells were scraped with even force by a cell scraper, dispersed into cell mass with appropriate size by mechanical force, and plated at an appropriate ratio (about 1:5 to 1:10) with 10 μM of Y27632 added.
as §1
Human induced pluripotent stem cells (iPSCs) were collected and cultured in Essential 8 medium without a feeder layer. After 24 hours of treatment with different concentrations of n-butylidenephthalide (100 μM, 200 μM, 500 μM, and 750 μM), the cell morphology was shown in FIG. 1A.

[4] = tested on: dopamine neurons differentiated from human iPSCs; experiment: Identification of differentiating dopamine neurons (CHSF-DA method): markers, dopamine ELISA, patch-clamp; assay type: cell-based; settings: 100 μM on days 23 to 28 of CHSF-DA differentiation, FIGS. 8A to 8M
Description: 2. Dopaminergic Neuron Adherent Differentiation of Human iPSCs (CHSF-DA Differentiation Method): Human iPSCs, cultured in feeder-free environment, were subcultured at a 1:10 ratio for dopaminergic neurons differentiation. For induction, a neural induction medium composed of DMEM/F12 (2:1) and N2 supplement were used and dopaminergic precursor cell-inducing factors basic FGF (FGF-basic, as known as FGF-2 or bFGF) (10 mg/mL), SB431542 (2 μM), CHIR99021 (7.5 μM), SAG (1 μM), and LDN193189 (0.2 μM) were added in days 1 to 12 of the differentiation process. On day 13 of the differentiation process, the medium was switched to a neuron culture medium (Neurobasal medium and N2/B27 supplements), with SAG (0.5 μM) added from days 13 to 18. SAG was removed on day 18, and 100 μM of n-butylidenephthalide was added on days 23 to 28 for a total of 6 days. The cells were subsequently cultured in Neurobasal medium with N2/B27 supplements, the medium was changed every 2 days during the differentiation process with proteins and small molecules re-added.
b. Application of n-Butylidenephthalide in Dopaminergic Neuron Preparation: 100 μM of n-Butylidenephthalide was added from days 23 to 28 during the CHSF-DA differentiation process for a total of 6 days.
a. […] The slides were stored in the dark at 4° C. for subsequent analysis under a fluorescence microscope. […]

[5] = tested on: neuronal cells differentiated from human iPSCs; experiment: Treatment of neuronal cell spheroids on day 25 of SFEB differentiation, morphology and NeuN/NF immunofluorescence; assay type: cell-based
Description: (§2) 3. Neural Differentiation of Human iPSCs Using the Serum-Free Embryoid Body (SFEB) Method: The differentiation of iPSCs into neural cells was performed in four steps. The first three steps involved SFEB suspension, in which suspended spheroid cells were cultured for 35 days, and the fourth step is a 3-day cell adhesion growth:
(§3) Step 1: iPSCs were aggregated into suspended embryoid bodies (EBs), which is an initial step of differentiation. iPSCs were treated with 1 mg/mL Dispase II until the edges rolled up, then rinsed three times with PBS. The iPSCs were collected by a cell scraper and dispersed into cell mass with appropriate size by visual inspection of pipet. After suspended in Essential 6 medium containing RevitaCell, and the iPSCs were transferred to a sterile, non-adherent 6 cm2 culture plate for a 2-day suspension culture, with daily medium changing.
(§4) Step 2: The EBs were transferred to a 15 mL centrifuge tube for settlement at room temperature, and the EBs were cultured in suspension for 2 days by adding neural induction medium (NI medium, Gibco) after removal of the supernatant. […]
(§5) Step 4: The cells were attached to a culture plate coated with 1% basement membrane matrix or laminin/ornithine. […] The cells grow outward from the center of the colony, and after 3 days of continued culture, the cells were ready for experimentation. […]

[6] = tested on: neural stem cells differentiated from human iPSCs; experiment: Treatment of neural stem cells on day 10 of SFEB differentiation, morphology and NeuN/NF immunofluorescence; assay type: cell-based
Description: as §2, §3, §4, §5

[7] = tested on: embryoid bodies derived from human iPSCs; experiment: Treatment of embryoid bodies from human iPSCs (SFEB suspension, one day), morphology and trypan blue staining; assay type: cell-based; settings: 24 hours
Description: as §3, §1
Cultured and collected iPSCs were aggregated into spheres using the SFEB suspension method and suspended in culture medium to simulate the three-dimensional structure of general pluripotent cell differentiation and transplantation. After only one day of suspension differentiation, the cells aggregated into structurally complete spheres (embryoid bodies).

[8] = tested on: residual undifferentiated pluripotent stem cells; settings: early treatment; cited from earlier work

In the case of `CCCC=C1OC(=O)c2ccccc21` [n-butylidenephthalide], the “calcium ion changes after KCl and glutamic acid stimulation versus Ctrl” value ([1]; NPC-BP500: 500 μM for 120 hours on day 10 of differentiation) is reported as “no statistically significant differences”, the “calcium ion changes after KCl and glutamic acid stimulation versus Ctrl” value ([1]; Neuron-BP500: 500 μM for 120 hours on day 25 of differentiation) is reported as “no statistically significant differences” and the “proportion of undifferentiated pluripotent stem cells expressing Oct-4” value [2] is reported as “decreased significantly”. The “number of human iPSCs versus control (Ctrl) and DMSO control” value ([3]; 24 hours, FIG. 1A) was “significantly lower”, the “number of human iPSCs versus control (Ctrl) and DMSO control” value ([3]; 48 hours, FIG. 1B) was “significantly lower” and the “cell morphology of human iPSCs” value ([3]; 200 μM, 48 hours, FIG. 1B) was “obvious floating and cell death”. For the same compound, the “adherence and survival of human iPSCs” value ([3]; concentrations above 500 μM, 24 hours, FIG. 1A) was “did not adhere or survive”, the “survival of human iPSCs” value ([3]; concentrations above 500 μM, 48 hours, FIG. 1B) was “No cells survived” and the “effect on specific protein expression and neurological function of dopamine neurons” value [4] was “did not affect the expression of specific proteins or the neurological function of dopamine neurons”. The “damage to neuronal cell spheroids or cell death” value ([5]; 50, 100, 200 and 500 μM for 120 hours from day 25 of differentiation, FIG. 4B) was “no damage to the spheroids or cell death was observed”, the “NeuN and NF expression and morphology of treated mature neurons” value ([5]; treated from day 25, cultured until day 38, FIG. 4C) was “exhibiting typical nerve fiber morphology” and the “cell death or morphological changes of suspended neural stem cell spheres” value ([6]; 50, 100, 200 and 500 μM for 120 hours from day 10 of differentiation, FIG. 3A) was “no cell death or morphological changes were observed”. The “ability of treated neural stem cells to differentiate into mature neurons (NeuN, NF)” value ([6]; treated from day 10, cultured until day 38, FIG. 3B) was “able to differentiate normally into mature neurons”, the “viable cells by trypan blue staining” value ([7]; 200 μM) was “decrease in viable cells” and the “viable cells by trypan blue staining” value ([7]; 500 μM) was “no viable cells were observed”. For the same compound, the “morphology of suspended spheres (embryoid bodies)” value ([7]; 500 μM, FIG. 2) was “all dispersed and died”.

In the case of `O=c1c(O)c(-c2ccc(O)c(O)c2)oc2cc(O)cc(O)c12` [quercetin], the “presence of residual undifferentiated pluripotent stem cells” value [8] is given as “can reduce”.

— patent US20250188411A1, “METHOD FOR SELECTIVE REMOVAL OF […] PLURIPOTENT STEM CELLS” (Buddhist Tzu Chi Medical Foundation, priority 2023, published 2025)
